The source of these data is patent US20240366693A1, “COMPOSITIONS FOR ENHANCING IMMUNOTHERAPY EFFICACY IN COLORECTAL CANCER TREATMENT” (The Chinese University of Hong Kong, priority 2023, published 2024).

The test system of one data set is CD4+ T cells. The data set is described as follows: Foxp3+ Treg differentiation of CD4+ T cells in vitro. In kind it is cell-based, mouse. Here is the method: T cells were isolated from spleens of tumour-bearing mice by negative selection using magnetic cell separation (EasySep mouse T cell isolation kit, CD8+ T cell isolation kit or CD4+ CD25+ Regulatory T cell Isolation Kit II; STEMCELL Technologies, Vancouver, Canada). Isolated T cells were cultured in Roswell Park Memorial Institute 1640 medium supplemented with 10% FBS, 50 μM β-mercaptoethanol, 10 ng/ml mouse recombinant interleukin-2 (IL-2), 0.1 ng/mL transforming growth factor β (TGFβ) and activated with Dynabeads mouse anti-CD3/CD28 beads (Thermo Fisher Scientific, Waltham, MA) for 72 hours. Cells were then collected for analysis.

Another data set deals with T1, human AHR protein (Homo sapiens, UniProt P35869).
T1 sequence (P35869 11-848): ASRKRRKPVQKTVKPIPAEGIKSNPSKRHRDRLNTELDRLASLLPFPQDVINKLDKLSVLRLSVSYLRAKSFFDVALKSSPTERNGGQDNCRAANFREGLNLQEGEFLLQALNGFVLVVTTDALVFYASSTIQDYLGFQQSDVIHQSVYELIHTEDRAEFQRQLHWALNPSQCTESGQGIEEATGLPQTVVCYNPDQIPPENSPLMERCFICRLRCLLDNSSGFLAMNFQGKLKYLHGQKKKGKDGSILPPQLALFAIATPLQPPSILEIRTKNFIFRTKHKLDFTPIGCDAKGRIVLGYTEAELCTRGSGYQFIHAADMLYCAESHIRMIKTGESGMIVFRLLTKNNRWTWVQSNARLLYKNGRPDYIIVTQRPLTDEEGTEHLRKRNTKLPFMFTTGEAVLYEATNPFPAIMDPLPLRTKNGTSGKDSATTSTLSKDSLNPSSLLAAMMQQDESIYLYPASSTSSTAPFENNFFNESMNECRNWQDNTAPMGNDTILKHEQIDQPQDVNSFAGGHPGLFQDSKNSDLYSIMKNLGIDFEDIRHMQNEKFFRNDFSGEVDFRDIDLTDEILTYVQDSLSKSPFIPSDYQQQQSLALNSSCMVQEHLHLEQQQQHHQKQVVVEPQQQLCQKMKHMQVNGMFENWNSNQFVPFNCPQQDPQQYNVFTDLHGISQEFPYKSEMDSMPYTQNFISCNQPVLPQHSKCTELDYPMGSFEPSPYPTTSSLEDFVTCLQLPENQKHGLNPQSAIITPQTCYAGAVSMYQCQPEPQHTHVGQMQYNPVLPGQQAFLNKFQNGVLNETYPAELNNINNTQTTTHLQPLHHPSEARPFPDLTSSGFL
The data set is described as follows: biochemical. In kind it is binding. The text has this:
We also performed the surface plasma resonance (SPR) assay to explore the interaction between ICA/Kyn with the human AHR receptor. […] These support our hypothesis that ICA displaces Kyn from AHR receptor and inhibited Kyn-mediated Treg differentiation through receptor competition.

A further data set has as its system CT26. The data set is described as follows: ICA model in CT26 syngeneic mice with anti-PD1 and Kyn supplementation. The data set is classed as in vivo, mouse. The conditions noted are these: Kyn 10 mg/kg i.p. twice weekly. Here is the method:
For indolecarboxylic acid (ICA) model, ICA (18 mg/kg, Sigma-Aldrich, St. Louis, MO) was gavaged to mice daily. Tumour inoculation and dosing schedule of anti-PD1 or isotype control is the same as described above. After the outgrowth of palpable tumours, kynurenine (Kyn, 10 mg/kg, Sigma-Aldrich) was intraperitoneally injected into mice twice weekly.

The subject of the next data set is MC-38. The data set is described as follows: MC38 rectum orthotopic tumour model. The data set is classed as in vivo, mouse. Here is the method: A MSI type mouse CRC cell line, MC-38 cell mix [5×10^5 cells in 10 μL Matrigel (354248, Corning, Manassas, US) per mouse] was orthotopically implanted into the rectum of C57BL/6. […] RMP1-14, Bio X Cell, West Lebanon, US) or control IgG (100 μg per mouse, BP0089, Colone: 2A-3, Bio X Cell) was injected intraperitoneally into MC-38 bearing mice, and followed by total five injections with three days interval one week after MC38 implantation. For tumour-infiltrating immune cell analysis, tumour from MC-38 and CT-26 bearing rectal orthotopic mouse models was minced on ice and digested in PBS buffer containing 0.5 mg/mL collagenase IV and 0.25 mg/ml DNase I at 37° C. for 30 min. After digestion, tumour tissue was filtered through a 70 μm cell strainers, and then distributed into different panels. For the surface staining of MDSC, cells were stained with Brilliant Violet 605 anti-mouse CD45 antibody (30-F11) (103140, BioLegend), PerCP/Cyanine5.5 anti-mouse/human CD11b antibody (M1/70) (101228, BioLegend), PE anti-mouse Ly-6G/Ly-6C (Gr-1) antibody (RB6-8C5). MDSC was gated in CD45^+ CD11b^+ Gr-1^+. For CD8 functional markers staining, the procedures were similar with the in vitro T cell analysis. Antibodies used for staining are as following: Brilliant Violet 605 anti-mouse CD45 antibody (30-F11) (103140, BioLegend), PE anti-mouse CD3 antibody (17A2) (100206, BioLegend), Brilliant Violet anti-mouse CD8a antibody (53-6.7) (100738, BioLegend), PE/Cyanine5 anti-mouse CD4 antibody (GK1.5) (100410, BioLegend), PE/Cyanine7 anti-human/mouse Granzyme B recombinant antibody (QA16A02) (372214, BioLegend), FITC anti-mouse IFN-γ antibody (XMG1.2) (505806, BioLegend), Brilliant Violet 711 anti-moue TNF-α (MP6-XT22) (506349, BioLegend). Flow Cytometry was performed on FACSAria cell sorter (BD Biosciences, Franklin Lakes, US). Data was analyzed by FlowJo 10.4.

The test system of a further data set is CT-26. The data set is described as follows: CT26 rectum orthotopic tumour model. The data set is classed as in vivo, mouse. The text has this: CT-26 tumour-bearing BALB/c mice with the same setting and treatment of MC-38 orthotopic model was developed to evaluate the efficacy of αPD-1 antibody immunotherapy on microsatellite stable (MSS)-type colorectal cancer. All experimental procedures were approved by the Chinese University of Hong Kong Animal Ethics Committee.
For tumour-infiltrating immune cell analysis, tumour from MC-38 and CT-26 bearing rectal orthotopic mouse models was minced on ice and digested in PBS buffer containing 0.5 mg/mL collagenase IV and 0.25 mg/ml DNase I at 37° C. for 30 min. After digestion, tumour tissue was filtered through a 70 μm cell strainers, and then distributed into different panels. For the surface staining of MDSC, cells were stained with Brilliant Violet 605 anti-mouse CD45 antibody (30-F11) (103140, BioLegend), PerCP/Cyanine5.5 anti-mouse/human CD11b antibody (M1/70) (101228, BioLegend), PE anti-mouse Ly-6G/Ly-6C (Gr-1) antibody (RB6-8C5). MDSC was gated in CD45^+ CD11b^+ Gr-1^+. For CD8 functional markers staining, the procedures were similar with the in vitro T cell analysis. Antibodies used for staining are as following: Brilliant Violet 605 anti-mouse CD45 antibody (30-F11) (103140, BioLegend), PE anti-mouse CD3 antibody (17A2) (100206, BioLegend), Brilliant Violet anti-mouse CD8a antibody (53-6.7) (100738, BioLegend), PE/Cyanine5 anti-mouse CD4 antibody (GK1.5) (100410, BioLegend), PE/Cyanine7 anti-human/mouse Granzyme B recombinant antibody (QA16A02) (372214, BioLegend), FITC anti-mouse IFN-γ antibody (XMG1.2) (505806, BioLegend), Brilliant Violet 711 anti-moue TNF-α (MP6-XT22) (506349, BioLegend). Flow Cytometry was performed on FACSAria cell sorter (BD Biosciences, Franklin Lakes, US). Data was analyzed by FlowJo 10.4.

The next data set has as its system CD8+ T cells. The data set can be described thus: Cytotoxic CD8+ T cell markers, T cells from human PBMC. The conditions noted are these: TH1020 with butyrate. The data set is classed as cell-based. Here is the method:
T cells isolated from healthy human peripheral blood mononuclear cells (PBMC) using immunomagnetic negative selection kit (17951, Stemcell Technologies, Vancouver, CA). Isolated T cells were then cultured in complete RPMI-1640 medium supplied with human CD3/CD28 magnet beads (11161D, Thermo Fisher Scientific, Waltham, US) and 30 U/ml recombinant human IL-2 (589104, BioLgend, San Diego, US) for expiation and activation for three days. Mouse T cells were isolated from the spleen of naïve mice and purified with Mouse T cell isolation kit (19851, Thermo Fisher Scientific, Waltham, US), cultured in complete RPMI-1640 medium with mouse CD3/CD28 beads (11456D, Thermo Fisher Scientific, Waltham, US) and 30 U/ml recombinant mouse IL-2 (575404, BioLegend, San Diego, US).
Cytotoxic CD8+ T cell markers Granzyme B, IFN-γ, TNF-α under the in vitro treatments of R.i CM, NaBu or TLR5 inbibitor TH1020 (HY-116961, MedChemExpress, Monmouth Junction, US) were analyzed with flow cytometry. Isolated human T cells were stimulated with 30 ng/ml PMA, 1 μg/ml ionomycin and 2.5 μg/ml monensin in complete RPMI-1640 medium at 37° C. for 4 hours. […]

The test system of the next data set is NF-κB. The data set is described as follows: Phospho-NF-κB p65 in activated Jurkat E6.1 T cells. The data set is classed as cell-based, human. The conditions noted are these: TH1020. Here is the method:
Phospho-NF-κB p65 (Ser536) Rabbit mAb (3033, Cell Signalling Technology, Danvers, US, 1:1000) and NF-κB p65 (D14E12) Rabbit mAb (8242, Cell Signalling Technology, Danvers, US, 1:1000) were used to measure NF-κB nuclear translocation in αCD3/αCD28/IL2 activated Jurkat E6.1 T cells.
Normal human epithelial cell NCM460, human CRC cell lines HCT116, LoVo, SW480, and mouse CRC cell lines MC38 and CT26 were cultured in Dulbecco's Modified Eagle's Medium (DMEM) with 10% fetal bovine serum (FBS) and 1% penicillin-streptomycin (P/S). Jurkat E6.1 (TIB-152, ATCC) was cultured in RPMI-1640 supplied with 10% FBS and 1% penicillin-streptomycin and activated in 3 μg/ml anti-CD3 (300332, BioLgend, San Diego, US), 5 μg/ml anti-human CD28 (302934, BioLgend, San Diego, US) and 100 IU/ml recombinant human IL-2 (589104, BioLgend, San Diego, US) pre-coated wells for 3 days.

[1] abbreviates: treatment alone vs αPD-1 therapy and control groups.

The structures appear in SMILES notation.

As to `Cc1ccccc1N=Nc1ccc(NC(=O)c2ccnn2C)c(C)c1` [CH-233191, reference compound], the “Kyn and ICA effects on Treg differentiation” value in the data set on CD4+ T cells (CH-233191 10 μM) was “abolished both Kyn and ICA effects in mediating Treg differentiation”.
Take `O=Cc1c[nH]c2ccccc12` [IAld, indole-3-carboxaldehyde, reference compound]: the “Treg differentiation, treatment alone” value with CD4+ T cells (naïve CD4+ T cells, without Kyn) was “none significantly affected Treg differentiation”.
Consider `Nc1ccccc1C(=O)CC(N)C(=O)O` (centres unmarked) [Kyn, Kynurenine, reference compound], for which, in the data set on CD4+ T cells (Kyn 50 μM, P<0.0001), the Treg differentiation entry is on record as “significantly induced Treg differentiation”. Moreover, on human AHR protein, the Kd – broadly, the constant that tells how readily two partners part at equilibrium – turned out to be 61 µM. Further, in the data set on CT26, the “effect of Kyn supplementation on ICA immune effects” value is given as “also reversed by Kyn supplementation” and the “effect of Kyn supplementation on ICA tumour effect” value is given as “reversed the effect of ICA”.
For `CCCC(=O)[O-].[Na+]` [NaBu, sodium butyrate], the “efficiency of αPD-1 therapy in combination” value in the data set on MC-38 (combination of αPD-1 with R.i or NaBu) is “did not enhance the efficiency of αPD-1 therapy”. The “MC38 orthotopic tumour growth” value in the data set on MC-38 (monotreatment, R.i 1×10^8 CFU daily gavage, 150 mM NaBu in drinking water, αPD-1 100 μg per mouse) is reported as “inhibited MC38 orthotopic tumour growth”. In the data set on MC-38 (mouse, in vivo), the “Granzyme B+, IFN-γ+ and TNF-α+ CD8+ T cells” value was “increased”; the MDSCs result is on record as “decreasing MDSCs”; the “tumour infiltrating CD8+ T cells” value is “increased infiltrating CD8^+ T cells”. In addition, in the data set with CT-26 (combination with anti-PD-1), the “anti-tumour effects in combination with anti-PD-1” value is on record as “further heightened the anti-tumour effects”; the “infiltrating and cytotoxic CD8+ T cells in combination with anti-PD-1” value is on record as “additional effects on these immune cells”. Moreover, the “proportion of MDSCs in tumours” value in the data set with CT-26 (monotherapy) is “reduced the proportion of MDSCs in tumours”. Also, in the data set on CT-26 (monotreatment), the “Granzyme B+, IFN-γ and TNF-α+ CD8+ T cells” value is given as “significantly increased”; the “proportion of infiltrating CD8+ T cells” value is recorded as “significantly increased”. In addition, in the data set on CT-26 (setting [1]), the tumour size result is listed as “still reduced” and the tumour weight entry is on record as “still reduced”.
Regarding `c1ccc(Cn2c(Sc3ncnc4c3sc3ncccc34)nnc2-c2ccncc2)cc1` [TH1020, reference compound], the “butyrate promotion of Granzyme B, IFN-γ and TNF-α in CD8+ T cells under TLR5 antagonist” value in the data set with CD8+ T cells was “abolished the effective promotion of butyrate on Granzyme B, IFN-γ and TNF-α in CD8+ T cells”. Moreover, the “R.i CM- and butyrate-induced phospho-NF-κB under TLR5 antagonist” value in the data set on NF-κB is given as “inhibited by Th1020”.
